Results: PubChem BioAssay (NCI)
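Cultured in 96-well plates, cells were exposed to test compound for 48 hours across five concentrations. The concentration for full growth arrest is given as TGI.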

How the values were obtained:
Assay in all cases: inhibition of tumour cell growth, NCI panel, 48 h
CAKI-1 renal = system: CAKI-1 renal
HCT-15 colon = system: HCT-15 colon
K-562 leukemia = system: K-562 leukemia
KM12 colon = system: KM12 colon
NCI-H23 lung = system: NCI-H23 lung
SF-268 CNS = system: SF-268 CNS
SK-MEL-28 melanoma = system: SK-MEL-28 melanoma
M14 melanoma = system: M14 melanoma
UO-31 renal = system: UO-31 renal
HS 578T breast = system: HS 578T breast

Row | SMILES | TGI (CAKI-1 renal) [µM] | TGI (HCT-15 colon) [µM] | TGI (K-562 leukemia) [µM] | TGI (KM12 colon) [µM] | TGI (NCI-H23 lung) [µM] | TGI (SF-268 CNS) [µM] | TGI (SK-MEL-28 melanoma) [µM] | TGI (M14 melanoma) [µM] | TGI (UO-31 renal) [µM] | TGI (HS 578T breast) [µM]
1 | O=CC1=CCC2c3[nH]c4ccccc4c3CCN2C1 (stereo not drawn) | > 396 | 156 | > 396 | 153 | 320 | > 396 | 248 | – | – | –
2 | c1cc2c(cc1[C@@H]1OC[C@@H]3[C@H]1CO[C@H]3c1ccc3c(c1)OCO3)OCO2 | > 100 | > 100 | > 100 | 71 | > 100 | > 100 | > 100 | > 100 | > 100 | –
3 | COc1ccc(CC[N+]2(C)COc3cc4oc(=O)cc(C)c4cc3C2)cc1OC (stereo not drawn) | > 100 | > 100 | > 100 | > 100 | > 100 | > 100 | > 100 | > 100 | > 100 | > 100
4 | C(=C\c1c2oc(-c3ccccc3)cc(-c3ccccc3)c-2c2ccccc12)/C=C1\c2ccccc2-c2c(-c3ccccc3)cc(-c3ccccc3)[o+]c21 | – | > 100 | > 100 | – | > 100 | > 100 | > 100 | > 100 | > 100 | –
5 | CC(C)[C@@H]1NC(=O)[C@@H]2N=C(O[C@H]2C)[C@H](C(C)C)NC(=O)C2N=C1O[C@H]2C | > 100 | > 100 | > 100 | > 100 | > 100 | > 100 | > 100 | > 100 | > 100 | > 100
6 | CC(=O)O[C@H]1C(=O)[C@@]2(C)[C@H]([C@H](OC(=O)c3ccco3)[C@]3(O)C[C@H](OC(=O)[C@H](O)[C@@H](NC(=O)c4ccccc4)c4ccccc4)C(C)=C1C3(C)C)[C@]1(OC(C)=O)CO[C@@H]1C[C@@H]2O | > 25 | > 25 | – | > 25 | > 25 | > 25 | > 25 | > 25 | > 25 | > 8.33
7 | CCOC(=O)c1cn(CC)c2ccc3c(c2c1=O)S(=O)(=O)C=C3 | > 100 | > 100 | > 100 | > 100 | > 100 | > 100 | > 100 | > 100 | > 100 | > 100
8 | O=C(O)/C=C/c1ccncc1 | > 100 | > 100 | > 100 | > 100 | > 100 | > 100 | > 100 | > 100 | > 100 | –
9 | COC(=O)C(NC(=O)c1ccccc1)C(c1c(O)cc(O)cc1O)P(=O)(OC)OC (stereo not drawn) | > 100 | > 100 | > 100 | > 100 | > 100 | > 100 | > 100 | > 100 | > 100 | –
10 | CCOC(=O)c1csc(NC(=O)C(C)N2CCOCC2)n1 (stereo not drawn) | > 100 | > 100 | > 100 | > 100 | > 100 | – | > 100 | > 100 | > 100 | –
11 | N#CC(NNC(=O)c1ccccc1O)c1c(O)ccc2ccccc12 (stereo not drawn) | 21 | 32.8 | > 66.3 | > 100 | 20.8 | 64.9 | > 100 | 30 | 11.4 | > 86.2
